# Assay results reported in patent US11535597B2, “Photoreactive ligands and uses thereof” (The Scripps Research Institute, priority 2017, dated 2022).
# Entries after “also recorded” stand apart in the source; their conditions may differ.
# What was measured:
# [1] = target: T1, α-galactosidase (GLA) (Homo sapiens, UniProt P06280); assay: Mapping of FFF probe-modified peptides on α-galactosidase (GLA); type: binding; conditions: near the active site and a secondary ligand binding site, respectively
# T1 construct: endogenous in cells; host or cells: human cells (HEK293T; a subset of probes also in K562)
# T1 sequence (P06280 32-429): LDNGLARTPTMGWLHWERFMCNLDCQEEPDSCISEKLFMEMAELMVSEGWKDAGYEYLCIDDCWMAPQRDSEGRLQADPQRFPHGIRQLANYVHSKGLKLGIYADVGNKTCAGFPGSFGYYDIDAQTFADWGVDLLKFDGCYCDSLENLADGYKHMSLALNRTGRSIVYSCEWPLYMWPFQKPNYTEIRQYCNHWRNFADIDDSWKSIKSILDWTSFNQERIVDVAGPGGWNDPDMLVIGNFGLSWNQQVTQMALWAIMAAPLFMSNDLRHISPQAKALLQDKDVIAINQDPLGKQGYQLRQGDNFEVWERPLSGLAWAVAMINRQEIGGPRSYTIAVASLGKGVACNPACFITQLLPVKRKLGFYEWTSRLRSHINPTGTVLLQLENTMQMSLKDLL
# Description: (§1) Preparation and analysis was adapted from methods previously reported. In brief, for global mapping of fragment probe-modified peptides, separate 10 cm dishes of cells were treated with probes (200-250 μM) in 3.0 mL of DMEM (serum-free) and (if applicable) competitor ligands, proteomes harvested and subjected to click chemistry conditions with either light or heavy isotopically labeled biotin-TEV-azide (10 μL of 5 mM stocks in DMSO, final concentration=100 μM), TCEP, ligand and CuSO4 as detailed above. The samples were allowed to react for 1 h at which point the samples were centrifuged (16,000 g, 5 min, 4° C.). The resulting pellets were sonicated in ice-cold methanol (500 μL) and the resuspended light- and heavy-labeled samples were then combined and centrifuged (16,000 g, 5 min, 4° C.). The pellets were then solubilized in PBS containing 1.2% SDS (1 mL) with sonication and heating (5 min, 95° C.). Samples were transferred to falcon tubes containing DPBS (5 mL), to which a 100 μL of streptavidin-agarose beads slurry was added. After incubation, the beads (3 hr) were pelleted by centrifugation (1,400 g, 3 min) and were washed (2×10 mL PBS and 2×10 mL water). The beads were transferred to eppendorf tubes with 1 mL DPBS, centrifuged (1,400 g, 3 min), and resuspended in PBS containing 6 M urea. To this was added 10 mM DTT (25 μL of a 200 mM stock in water) and the beads were incubated at 65° C. for 15 mins. 20 mM iodoacetamide (25 μL of a 400 mM stock in water) was then added and allowed to react at 37° C. for 30 mins with shaking. The bead mixture was diluted with 900 μL PBS, pelleted by centrifugation (1,400 g, 3 min), and resuspended in 200 μL 2M urea (DPBS) containing trypsin and CaCl2 as described above. The beads were separated from the digest by centrifugation (1,000 g, 1 min), washed (2×1 mL PBS and 2×1 mL water) and then transferred to fresh eppendorfs with 1 mL water. The washed beads were washed once further in 150 μL TEV buffer (50 mM Tris, pH 8, 0.5 mM EDTA, 1 mM DTT) by centrifugation (1,400 g, 3 min) and the resuspended in 150 μL TEV buffer. 5 μL TEV protease (80 μM) was added and the reactions were rotated overnight at 29° C. The TEV digest was separated from the beads by centrifugation (1,400 g, 3 min) and the beads were washed once with water (100 μL). The samples were then acidified to a final concentration of 5% (v/v) formic acid and stored at −80° C. prior to analysis.
# (§2) The resulting probe-modified peptides were collected for MS analysis, which was performed as described above with differences in the salt bumps applied in the chromatographic gradients which in this case were 0%, 30%, 60%, 90% and 100% NH4OAc (500 μM). […] The isoTOP ratios for probe labeled peptides were quantified using the in-house software CIMAGE. […]
# [2] = target: T2, YWHAE (Homo sapiens, UniProt P62258); assay: Mapping of FFF probe-modified peptide on YWHAE; type: binding; conditions: for Labeled Peptide (residues) of YWHAE 14-3-3 protein epsilon: P62258, PDB 3UBW
# T2 construct: endogenous in cells; host or cells: human cells (HEK293T; a subset of probes also in K562)
# T2 sequence (P62258 1-255): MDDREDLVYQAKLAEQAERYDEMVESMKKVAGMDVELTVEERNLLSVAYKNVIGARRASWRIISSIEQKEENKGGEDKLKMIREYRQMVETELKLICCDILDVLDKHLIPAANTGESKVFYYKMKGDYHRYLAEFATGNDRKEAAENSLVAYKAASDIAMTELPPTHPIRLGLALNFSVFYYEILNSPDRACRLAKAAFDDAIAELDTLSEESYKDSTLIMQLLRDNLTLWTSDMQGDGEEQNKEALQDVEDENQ
# Description: as §1, with “The beads were separated from the digest by centrifugation (1,000 g, 1 min), washed (2×1 mL PBS and 2×1 mL water) and then transferred to fresh eppendorfs with 1 mL water. The washed beads were washed once further in 150 μL TEV buffer (50 mM Tris, pH 8, 0.5 mM EDTA, 1 mM DTT) by centrifugation (1,400 g, 3 min) and the resuspended in 150 μL TEV buffer. 5 μL TEV protease (80 μM) was added and the reactions were rotated overnight at 29° C. The TEV digest was separated from the beads by centrifugation (1,400 g, 3 min) and the beads were washed once with water (100 μL). The samples were then acidified to a final concentration of 5% (v/v) formic acid and stored at −80° C. prior to analysis.” left out
# as §2
Compound,probe-modified peptides in GLA [1],Labeled Peptide (residues) of YWHAE 14-3-3 protein epsilon ([2]; peptide AAFDDAIAELDTLSEESYK),Labeled Peptide (residues) of YWHAE 14-3-3 protein epsilon ([2]; peptide EAAENSLVAYK),probe-modified peptide in YWHAE ([2]; lines the primary interaction cleft for MLF1)
"C#CCCC1(CCC(=O)Nc2ccc(C3CCNCC3)cc2)N=N1 [probe 9, 3-(3-(But-3-yn-1-yl)-3H-diazirin-3-yl)-N-(4-(piperidin-4-yl)phenyl)propanamide]",aa 50-68; also recorded: aa 241-253,,,
"C#CCCC1(CCC(=O)N2CCCCC2Cc2ccccc2)N=N1 (stereo not shown) [probe 13, 1-(2-Benzylpiperidin-1-yl)-3-(3-(but-3-yn-1-yl)-3H-diazirin-3-yl)propan-1-one]",,197-215,143-153,aa 197-215
